The values that follow come from patent US8227616B2, “Cyanopyridine antibacterial agents and methods of use thereof” (Wisconsin Alumni Research Foundation, priority 2006, dated 2012).

The subject of assay [1] is Methicillin-resistant S. aureus ATCC 33591 (MRSA). In words: MIC determination with authentic compounds resynthesized in solution. To be noted: Staphylococcus aureus; Table 3; authentic sample, only trans isomers of chalcones; error reflects step size in the serial dilutions. In kind it is cell-based. As for the experimental part: (§1) For estimated MIC determination, DMSO was added to the dried compound residue obtained from a single spot to afford ca. 100 μL of a 2 mM stock solution. Aliquots (5 μL) of these solutions were added to a 96-well plate, followed by 195 μL of diluted S. aureus 10390 (10^6 CFUs/mL) to yield ca. 50 μM final concentrations. The plates were swirled for 1 h to ensure compound dissolution, incubated for 12 h at 37° C., and the absorbance at 595 nm was recorded using a plate reader. […] Actual MIC values were determined for lead compounds resynthesized in solution using an analogous procedure with solutions of known concentration (see).
(§2) Dose response growth inhibition curves were determined for each active compound (resynthesized in solution) against S. aureus 10390 (SA) and methicillin-resistant S. aureus 33591 (MRSA). […] MIC assays were performed in quadruplicate.

In assay [2] the test system is S. aureus ATCC 10390. The description is as above. To be noted: Staphylococcus aureus, ATCC10390. In kind it is cell-based, Staphylococcus aureus. As for the experimental part: as §1, §2
Assay [3] has as its system S. aureus ATCC 10390. In words: Estimated MIC, solution-phase microdilution absorbance assay with crude macroarray spot stock solutions. Format: cell-based, Staphylococcus aureus. To be noted: for MIC: Staphylococcus aureus, ATCC10390, 12 h. The method, then: Spots from a new 69 member chalcone macroarray as well as the three heterocyclic macroarrays prepared earlier were punched out, cleaved, and eluted with acetonitrile. The resulting solutions were concentrated to a residue that was taken up in DMSO to form 2 mM stock solutions.
From the stock solutions, microdilution assays in a 96 well plate starting at 50 μM were performed in quadruplicate. Each well contained 5 μL of the stock solution as well as 195 μL of a S. aureus culture. The turbidity of each well was measured after incubating 12 hours using a standard plate reader. Active compounds can be further diluted and the assay repeated.
To acquire more quantitative antibacterial activity data about our compounds and verify our on-support assay results, we performed solution-phase absorbance assays that provided estimates of the minimum inhibitory concentration (MIC) of each macroarray member against S. aureus. Stock solutions (ca. 2 mM) were generated by cleaving and eluting 198 individual compounds from chalcone (3) and heterocyclic macroarrays (5, 7, and 8). […] The good overall purities of the crude macroarray compounds allowed for reasonable estimations of MICs.
as §1
Preparation of spot samples and controls. An aliquot of DMSO (ca. 100 μL depending on the loading of the parent hydroxyacetophenone) was added to the dried compound residue obtained after TFA cleavage and elution from a single spot. This afforded a 2.0 mM “spot stock” solution for each spot. A small aliquot of each “spot stock” solution was saved for subsequent LC-MS analysis.
For estimated MIC screens, 5.0 μL portions of the “spot stock” solutions were added to the appropriate wells in a sterile, polystyrene 96-well plate to yield ca. 50 μM solutions (dependent on the initial loading of hydroxyacetopheneone and compound purity). To the positive and negative control wells, 5.0 μL of DMSO were added (positive controls contained bacteria but no compound, while negative controls had neither compound nor bacteria). All estimated MIC assays were performed in quadruplicate. Note: the MIC value is defined as the lowest concentration where no bacterial growth occurs.
Representative estimated MIC assay procedure. This assay procedure is based in part on the method reported by Strøm et al.^xiii A 400 μL portion of overnight S. aureus 10390 culture was diluted with 100 mL of sterile LB broth to give ca. 10^6 CFUs per mL. Aliquots (195 μL) of this solution were added to all of the wells in a sterile 96-well plate (except for the negative control wells; 195 μL of sterile LB broth were added to these wells). The plates were placed on an orbital shaker table and gently swirled for 1 h to ensure compound dissolution, and then incubated (without shaking) for 12 h at 37° C. The absorbance at 595 nm was recorded using a plate reader.
The original “spot stock” solutions of these compounds were diluted with DMSO to give ca. 25 and 13 μM final concentrations and tested for inhibitory activities using the procedure described above.

For assay [4], the system named is B. subtilis subsp. spizizenii ATCC 6633. Nature of the assay: MIC determination, species selectivity. The settings on record: Bacillus subtilis, ATCC6633; authentic sample, only trans isomers of chalcones; error reflects step size. In kind it is cell-based. As for the experimental part:
(§3) Each compound from Table 3 was tested for inhibitory activity at 2.5, 5, 7.5, 10, 15, 20, 25, and 30 μM in the susceptible overlaid strains: B. subtilis ATCC 6633, S. epidermidis ATCC 12228, and K. pneumoniae ATCC 4352. MIC assays were run in quadruplicate as described above (with shaking).

The test system of assay [5] is S. epidermidis ATCC 12228. In words: MIC determination, species selectivity. In kind it is cell-based. The settings on record: Staphylococcus epidermidis, ATCC12228; authentic sample, only trans isomers of chalcones; error reflects step size. The method, then:
as §3

Another assay has as its system K. pneumoniae ATCC 4352. In words: MIC determination, species selectivity. In kind it is cell-based. The settings on record: Klebsiella pneumoniae, ATCC4352; authentic sample, only trans isomers of chalcones; error reflects step size. As for the experimental part: as §3
A further assay has as its system K. pneumoniae. Nature of the assay: Agar overlay TTC assay, compound overlays. Format: cell-based, Klebsiella pneumoniae. To be noted: 30 nanomole aliquots of purified compound on filter paper.
Where [6] appears, read: Table 2, authentic sample synthesized according to standard techniques, read-out: observed MIC.
The mark [7] stands for this setting: Table 3, authentic sample, only trans isomers of chalcones, error reflects step size in the serial dilutions, read-out: S. aureus MIC.
Setting [8] is: Table 2, serial dilution of stock solutions obtained by SPOT-synthesis, read-out: estimated MIC range.
Setting [9] is: Table 3, serial dilution of spot stock solutions of crude macroarray compounds, read-out: S. aureus Estimated MIC range.

In brackets after ≈: the same amount, converted by molar mass. Bounds are passed on as bounds.

The MIC is the least concentration at which growth counts as inhibited. Regarding `O=C(O)c1cn(C2CC2)c2cc(N3CCNCC3)c(F)cc2c1=O` [Ciprofloxacin, ciprofloxacin, reference compound], the MIC is 0.9 ± 0.1 µM (≈ 0.298 µg/mL) in assay [1], 0.75 ± 0.12 µM (≈ 0.249 µg/mL) with S. aureus ATCC 10390 [2] (setting [6]) and 0.6 ± 0.1 µM (≈ 0.199 µg/mL) with S. aureus ATCC 10390 [2] (setting [7]).

As for `Cc1nc(-c2ccc(O)cc2)cc(-c2cccc(Cl)c2Cl)c1C#N` [Compound 6Al, 4-(2,3-dichlorophenyl)-6-(4-hydroxyphenyl)-2-methyl-3-cyanopyridine], the minimum inhibitory concentration (MIC) in the assay with S. aureus ATCC 10390 [3] (setting [8]) is 12.5 to 25 µM (≈ 4.44 to 8.88 µg/mL); with S. aureus ATCC 10390 [3] (setting [9]) it was 12.5 to 25 µM (≈ 4.44 to 8.88 µg/mL); in assay [4], 6.3 ± 1.2 µM (≈ 2.24 µg/mL); in assay [5], 12.5 ± 2.5 µM (≈ 4.44 µg/mL); in assay [1] it was 10 ± 0.5 µM (≈ 3.55 µg/mL); in the assay on S. aureus ATCC 10390 [2] (setting [6]), 8.7 ± 1.3 µM (≈ 3.09 µg/mL). Moreover, the MIC with S. aureus ATCC 10390 [2] (setting [7]) amounted to 10 ± 0.5 µM (≈ 3.55 µg/mL).

As for `O=C(/C=C/c1ccc(Cl)cc1Cl)c1ccc(O)cc1` [Compound 4At, 2,4-dichloro-4′-hydroxychalcone], the MIC is 25 to 50 µM (≈ 7.33 to 14.7 µg/mL) in the assay with S. aureus ATCC 10390 [3] (setting [8]); 25 to 50 µM (≈ 7.33 to 14.7 µg/mL) in the assay on S. aureus ATCC 10390 [3] (setting [9]); 27.5 ± 2.5 µM (≈ 8.06 µg/mL) in assay [4]; 27.5 ± 2.5 µM (≈ 8.06 µg/mL) in assay [5]; more than 250 µM against K. pneumoniae ATCC 4352; 18.7 ± 1.2 µM (≈ 5.48 µg/mL) in assay [1]. Moreover, the MIC stood at 18.8 ± 1.2 µM (≈ 5.51 µg/mL) with S. aureus ATCC 10390 [2] (setting [6]) and 21.2 ± 1.2 µM (≈ 6.21 µg/mL) in the assay on S. aureus ATCC 10390 [2] (setting [7]). For the same compound, the “susceptibility in agar overlay TTC assay” value in the assay on K. pneumoniae is “weakly susceptible”.

`Cc1nc(-c2cccc(O)c2)cc(-c2ccc(Cl)cc2Cl)c1C#N` [Compound 6Bt, 4-(2,4-dichlorophenyl)-6-(3-hydroxyphenyl)-2-methyl-3-cyanopyridine]: the “inhibition of S. aureus at the 12.5 μM level” value in the assay on S. aureus ATCC 10390 [3] (12.5 μM, macroarray stock solutions diluted four fold) is given as “complete inhibition”. In addition, the MIC with S. aureus ATCC 10390 [3] (setting [8]) is 6.25 to 12.5 µM (≈ 2.22 to 4.44 µg/mL); in the assay with S. aureus ATCC 10390 [3] (setting [9]), less than 12.5 µM; in assay [4], 22.5 ± 2.5 µM (≈ 7.99 µg/mL); in assay [5], 17.5 ± 2.5 µM (≈ 6.22 µg/mL); in assay [1], 13.4 ± 0.9 µM (≈ 4.76 µg/mL); in the assay with S. aureus ATCC 10390 [2] (setting [6]), 10 ± 1 µM (≈ 3.55 µg/mL). The MIC in the assay with S. aureus ATCC 10390 [2] (setting [7]) stood at 11.6 ± 0.9 µM (≈ 4.12 µg/mL).
